Laboratory results from patent publication US20240010913A1, “RED FLUORESCENT SENSOR COMPOUNDS FOR THE DETECTION OF METAL IONS” (FEMTONICS KFT., priority 2020, published 2024).
Entries after “also recorded” stand apart in the source; their conditions may differ.

Key:
[1] = Solubility of the product (qualitative); format: physicochemical
[2] = Ion screening (fluorescence), Zn2+; format: physicochemical; conditions: for selectivity towards Zn ion: vs Ca2+, Mg2+, Na+, K+, Fe3+, Cu2+, Sn2+, Cd2+, Pb2+
[3] = Ion screening (fluorescence), Ca2+; format: physicochemical
[4] = Ion screening (fluorescence), Sn2+; format: physicochemical
[5] = cited from earlier work
[6] = Aqueous solution: fluorescence and colour on addition of aqueous 1 mM ZnCl2; format: physicochemical; conditions: for colour of the aqueous solution / fluorescence of the solution upon irradiation: upon addition of aqueous 1 mM ZnCl2; for fluorescence of the aqueous solution: without Zn
[7] = Fluorescent spectra in the presence of various Zn ion concentration (Zn-titration); format: physicochemical; conditions: 0.1 M HEPES buffer pH 7.4
Procedure: (§1) Fluorescent spectra were recorded on an FLS920 Fluorescence Spectrometer from Edinburgh Instrument. A quartz cuvette with 3 mL volume and 1 cm length was used. Absorption spectra were recorded on a ThermoFisher NanoDrop 1000 Spectrophotometer. The two-photon measurements were performed on the custom Femtonics Dobos Dual system using a water immersion lens, a Mai Tai High-Power laser operated at 50 mW. For processing the images, ImageJ software was used.
FIG. 1. Fluorescence spectra of compound 28 pH 7.4 (0.1 M) HEPES buffer containing different amounts of Zn^2+. Values are not normalized, spectra were recorded at the maximum excitation wavelength.
FIG. 5. Fluorescence spectra of the compound of 29 in 0.1 M HEPES buffer (pH 7.4) containing different amounts of Zn^2+.
FIG. 7. Fluorescence spectra of the compound of 31 in pH 7.4 (0.1 M) HEPES buffer containing different amounts of Zn^2+.
FIG. 9. Fluorescence spectra of the compound of 30 in pH 7.4 (0.1 M) HEPES buffer containing different amounts of Zn^2+ ion.

[8] = UV-VIS absorption spectra; format: physicochemical
Procedure: as §1

[9] = Ion screening (fluorescence), Cd2+; format: physicochemical
[10] = cited from earlier work; remark: listed apart in the source

## O=C1NC(Nc2ccccc2)=N/C1=C\c1ccc2ccc3cccnc3c2n1 [compound 34, (Z)-5-((1,10-phenanthrolin-2-yl)methylene)-2-(phenylamino)-3,5-dihydro-4H-imidazol-4-one]
[1]
  solubility in DMSO: soluble
  solubility in THF: Moderately soluble
  solubility in the mixture of DMSO and water: soluble

## O=C(O)CN(CC(=O)O)c1cccc2ccc(/C=C3\N=C(Nc4ccccc4)NC3=O)nc12 [compound 33, (Z)-2,2′-((2-((5-oxo-2-(phenylamino)-1,5-dihydro-4H-imidazol-4-ylidene)methyl)quinolin-8-yl)azanediyl)diacetic acid]
[2]
  turn on in the presence of Zn2+: does not turn on
[3]
  fluorescence with Ca2+ ion: increased fluorescence intensity
[4]
  turn on by Sn2+: turn on the sensor

## Cc1cc(/C=N/c2cccc3cccnc23)c(O)c(CO)c1 [HQMP]
[5]
  solubility / water-solubility: Poor water-solubility

## O=C1NC(Nc2ccccc2)=N/C1=C\c1ccc2cccc(O)c2n1 [compound 28, (Z)-5-((8-hydroxyquinolin-2-yl)methylene)-2-(phenylamino)-3,5-dihydro-4H-imidazol-4-one]
[6]
  colour of the aqueous solution: colour changes to yellow
  fluorescence of the solution upon irradiation: emits fluorescence
  fluorescence of the aqueous solution: emits no fluorescence
[7]
  maximum emitted wavelength: around 545 nm
[1]
  solubility in DMSO: Soluble
  solubility in alcohols: Soluble
  solubility in water: moderately soluble
[8]
  UV spectra maximum wavelength: around 472 nm
[8]; between UV maximum and emission maximum
  Stokes shift: 73 nm

## CN(Cc1ccccn1)c1cccc2ccc(/C=C3\N=C(Nc4ccccc4)NC3=O)nc12 [compound 31, (Z)-5-((8-(methyl(pyridin-2-ylmethyl)amino)quinolin-2-yl)methylene)-2-(phenylamino)-3,5-dihydro-4H-imidazol-4-one]
[6]
  colour of the aqueous solution: colour changes to yellow
  fluorescence of the solution upon irradiation: emits fluorescence
  fluorescence of the aqueous solution: emits no fluorescence
[2]
  Zn/Ca fluorescence ratio: good
  fluorescence in ion screening: strong green fluorescence
  selectivity towards Zn ion: good selectivity
[7]
  maximum emitted wavelength: around 545 nm
[1]
  solubility in DMSO: Soluble
  solubility in alcohols: Soluble
  solubility in water: moderately soluble
[9]
  selectivity against Cd2+: weak
[8]
  UV spectra extends over: over 500 nm
  UV spectra maximum wavelength: around 481 nm

## COc1cccc2ccc(/C=C3\N=C(Nc4ccccc4)NC3=O)nc12 [compound 32, (Z)-5-((8-methoxyquinolin-2-yl)methylene)-2-(phenylamino)-3,5-dihydro-4H-imidazol-4-onen]
[6]
  colour of the aqueous solution: colour changes to green
  fluorescence of the solution upon irradiation: emits fluorescence
  fluorescence of the aqueous solution: emits no fluorescence
[1]
  solubility in DMSO: Soluble
  solubility in alcohols: Soluble
  solubility in water: moderately soluble

## O=C(CNNC(=O)c1ccccc1)Nc1cccc2cccnc12 [QLNPY]
[10]; by PPi and S^2−
  quenching: quenched by PPi
[10]
  specificity / selectivity: not selective for Cd^2+

## CN(C)CCN(C)c1cccc2ccc(/C=C3\N=C(Nc4ccccc4)NC3=O)nc12 [compound 30, (Z)-5-((8-((2-(dimethylamino)ethyl)(methyl)amino)quinolin-2-yl)methylene)-2-(phenylamino)-3,5-dihydro-4H-imidazol-4-one]
[6]
  colour of the aqueous solution: colour gets brighter
  fluorescence of the solution upon irradiation: emits fluorescence
  fluorescence of the aqueous solution: emits no fluorescence
[2]
  fluorescence in ion screening: strong green fluorescence
  fluorescence intensity in ion screening: lower intensity
  selectivity towards Zn ion: strong selectivity
[7]
  maximum emitted wavelength: around 555 nm
[1]
  solubility in DMSO: Soluble
  solubility in alcohols: Soluble
  solubility in water: moderately soluble
[8]
  UV spectra extends over: over 500 nm
  UV spectra maximum wavelength: around 476 nm

## O=C1N=C(Nc2ccccc2)N/C1=C\c1ccc2ccc3ccc(/C=C4\NC(Nc5ccccc5)=NC4=O)nc3c2n1 [compound 35, (5Z,5′Z)-5,5′-((1,10-phenanthroline-2,9-diyl)bis(methanylylidene))bis(2-(phenylamino)-1,5-dihydro-4H-imidazol-4-one)]
[1]
  solubility in DMSO: soluble
  solubility in THF: Moderately soluble
  solubility in the mixture of DMSO and water: soluble

## CN(C)c1cccc2ccc(/C=C3\N=C(Nc4ccccc4)NC3=O)nc12 [compound 29, (Z)-5-((8-(dimethylamino)quinolin-2-yl)methylene)-2-(phenylamino)-3,5-dihydro-4H-imidazol-4-one]
[6]
  colour of the aqueous solution: colour changes to greenish
  fluorescence of the solution upon irradiation: emits fluorescence
  fluorescence of the aqueous solution: emits no fluorescence
[2]
  Zn/Ca fluorescence ratio: excellent
  fluorescence in ion screening: strong green fluorescence
  selectivity towards Zn ion: strong selectivity
[1]
  solubility in DMSO: Soluble
  solubility in alcohols: Soluble
  solubility in water: Soluble
[8]
  UV spectra extends over: over 500 nm

## COc1cc(NS(=O)(=O)c2ccc(C)cc2)c2ncccc2c1 [TSQ, 6-methoxy-(8-p-toluenesulfonamido)quinoline]
[5]
  solubility / water-solubility: poor water-

## Oc1cccc2cccnc12 [8-hydroxyquinoline]
[10]
  specificity / selectivity: low

## CCOC(=O)COc1cc(NS(=O)(=O)c2ccc(C)cc2)c2nc(C)ccc2c1 [Zinquin Ester]
[5]
  solubility / water-solubility: weak solubility; also recorded: excitation, poor water-solubility
